Patent publication US12186304B2, “Method for treating cancer by combination of IAP inhibitor and modulator of immune checkpoint molecule” (ASCENTAGE PHARMA (SUZHOU) CO., LTD., priority 2018, dated 2025)

Test: Phase I study (NCT03386526): safety and tolerability
Procedure: The Phase I dose escalation study included two parts.
Pembrolizumab was administered 200 mg IV on day 1 of a 21-day-cycle, until disease progression or untolerated toxicity.
The inclusion criteria for the Phase I study are: Age≥18 years; ECOG PS: 0-1;
Adequate hematologic, renal and liver functions; Advanced or metastatic solid tumor patients must be refractory to or intolerant of existing therapy(ies) known to provide clinical benefit for their condition.

Compound: CN[C@@H](C)C(=O)N[C@H]1CN(S(=O)(=O)c2cccc(S(=O)(=O)N3CC[C@H]4CC[C@@H](C(=O)NC(c5ccccc5)c5ccccc5)N4C(=O)[C@@H](NC(=O)[C@H](C)NC)C3)c2)CC[C@H]2CC[C@@H](C(=O)NC(c3ccccc3)c3ccccc3)N2C1=O [APG-1387]
- G3 above TRAEs: G3 blood bilirubin increased (60 mg monotherapy): one
- G3 above TRAEs: lipase increased (60 mg monotherapy): one
- # of pts discontinued treatment: Adverse Event (APG-1387 20 mg): 0
- # of pts discontinued treatment: Clinical progression (APG-1387 20 mg): 0
- # of pts discontinued treatment: Disease progression (APG-1387 20 mg): 2
- # of pts discontinued treatment: Lack of efficacy (APG-1387 20 mg): 1
- TRAEs (all Grades): Aspartate aminotransferase increased, patients (APG-1387 20 mg): 0
- TRAEs (all Grades): Bell's palsy, patients (APG-1387 20 mg): 0
- TRAEs (all Grades): Blood bilirubin increased, patients (APG-1387 20 mg): 0
- TRAEs (all Grades): Decreased appetite, patients (APG-1387 20 mg): 0
- TRAEs (all Grades): Dehydration, patients (APG-1387 20 mg): 0
- TRAEs (all Grades): Diarrhoea, patients (APG-1387 20 mg): 0
- TRAEs (all Grades): Dyspepsia, patients (APG-1387 20 mg): 0
- TRAEs (all Grades): Eructation, patients (APG-1387 20 mg): 0
- TRAEs (all Grades): Fatigue, patients (APG-1387 20 mg): 0
- TRAEs (all Grades): Headache, patients (APG-1387 20 mg): 0
- TRAEs (all Grades): Lipase increased, patients (APG-1387 20 mg): 0
- TRAEs (all Grades): Myalgia, patients (APG-1387 20 mg): 0
- TRAEs (all Grades): Nausea, patients (APG-1387 20 mg): 0
- TRAEs (all Grades): Peripheral sensory neuropathy, patients (APG-1387 20 mg): 0
- TRAEs (all Grades): Phlebitis, % of patients (APG-1387 20 mg): (33.3%)
- TRAEs (all Grades): Phlebitis, patients (APG-1387 20 mg): 1
- TRAEs (all Grades): Pneumonitis, patients (APG-1387 20 mg): 0
- TRAEs (all Grades): Pruritus, % of patients (APG-1387 20 mg): (33.3%)
- TRAEs (all Grades): Pruritus, patients (APG-1387 20 mg): 1
- TRAEs (all Grades): Rash maculo-papular, % of patients (APG-1387 20 mg): (33.3%)
- TRAEs (all Grades): Rash maculo-papular, patients (APG-1387 20 mg): 1
- TRAEs (all Grades): Tumor pain, patients (APG-1387 20 mg): 0
- # of pts discontinued treatment: Adverse Event (APG-1387 30 mg): 0
- # of pts discontinued treatment: Clinical progression (APG-1387 30 mg): 0
- # of pts discontinued treatment: Disease progression (APG-1387 30 mg): 3
- # of pts discontinued treatment: Lack of efficacy (APG-1387 30 mg): 0
- TRAEs (all Grades): Aspartate aminotransferase increased, patients (APG-1387 30 mg): 0
- TRAEs (all Grades): Bell's palsy, patients (APG-1387 30 mg): 0
- TRAEs (all Grades): Blood bilirubin increased, patients (APG-1387 30 mg): 0
- TRAEs (all Grades): Decreased appetite, patients (APG-1387 30 mg): 0
- TRAEs (all Grades): Dehydration, patients (APG-1387 30 mg): 0
- TRAEs (all Grades): Diarrhoea, % of patients (APG-1387 30 mg): (33.3%)
- TRAEs (all Grades): Diarrhoea, patients (APG-1387 30 mg): 1
- TRAEs (all Grades): Dyspepsia, patients (APG-1387 30 mg): 0
- TRAEs (all Grades): Eructation, patients (APG-1387 30 mg): 0
- TRAEs (all Grades): Fatigue, patients (APG-1387 30 mg): 0
- TRAEs (all Grades): Headache, % of patients (APG-1387 30 mg): (33.3%)
- TRAEs (all Grades): Headache, patients (APG-1387 30 mg): 1
- TRAEs (all Grades): Lipase increased, patients (APG-1387 30 mg): 0
- TRAEs (all Grades): Myalgia, patients (APG-1387 30 mg): 0
- TRAEs (all Grades): Nausea, % of patients (APG-1387 30 mg): (33.3%)
- TRAEs (all Grades): Nausea, patients (APG-1387 30 mg): 1
- TRAEs (all Grades): Peripheral sensory neuropathy, patients (APG-1387 30 mg): 0
- TRAEs (all Grades): Phlebitis, patients (APG-1387 30 mg): 0
- TRAEs (all Grades): Pneumonitis, patients (APG-1387 30 mg): 0
- TRAEs (all Grades): Pruritus, patients (APG-1387 30 mg): 0
- TRAEs (all Grades): Rash maculo-papular, patients (APG-1387 30 mg): 0
- TRAEs (all Grades): Tumor pain, patients (APG-1387 30 mg): 0
- # of pts discontinued treatment: Adverse Event (APG-1387 45 mg): 1
- # of pts discontinued treatment: Clinical progression (APG-1387 45 mg): 1
- # of pts discontinued treatment: Disease progression (APG-1387 45 mg): 8
- # of pts discontinued treatment: Lack of efficacy (APG-1387 45 mg): 1
- TRAEs (all Grades): Aspartate aminotransferase increased, % of patients (APG-1387 45 mg): (7.7%)
- TRAEs (all Grades): Aspartate aminotransferase increased, patients (APG-1387 45 mg): 1
- TRAEs (all Grades): Bell's palsy, % of patients (APG-1387 45 mg): (7.7%)
- TRAEs (all Grades): Bell's palsy, patients (APG-1387 45 mg): 1
- TRAEs (all Grades): Blood bilirubin increased, patients (APG-1387 45 mg): 0
- TRAEs (all Grades): Decreased appetite, % of patients (APG-1387 45 mg): (15.4%)
- TRAEs (all Grades): Decreased appetite, patients (APG-1387 45 mg): 2
- TRAEs (all Grades): Dehydration, % of patients (APG-1387 45 mg): (7.7%)
- TRAEs (all Grades): Dehydration, patients (APG-1387 45 mg): 1
- TRAEs (all Grades): Diarrhoea, patients (APG-1387 45 mg): 0
- TRAEs (all Grades): Dyspepsia, % of patients (APG-1387 45 mg): (7.7%)
- TRAEs (all Grades): Dyspepsia, patients (APG-1387 45 mg): 1
- TRAEs (all Grades): Eructation, patients (APG-1387 45 mg): 0
- TRAEs (all Grades): Fatigue, % of patients (APG-1387 45 mg): (23.1%)
- TRAEs (all Grades): Fatigue, patients (APG-1387 45 mg): 3
- TRAEs (all Grades): Headache, patients (APG-1387 45 mg): 0
- TRAEs (all Grades): Lipase increased, patients (APG-1387 45 mg): 0
- TRAEs (all Grades): Myalgia, % of patients (APG-1387 45 mg): (7.7%)
- TRAEs (all Grades): Myalgia, patients (APG-1387 45 mg): 1
- TRAEs (all Grades): Nausea, % of patients (APG-1387 45 mg): (7.7%)
- TRAEs (all Grades): Nausea, patients (APG-1387 45 mg): 1
- TRAEs (all Grades): Peripheral sensory neuropathy, % of patients (APG-1387 45 mg): (7.7%)
- TRAEs (all Grades): Peripheral sensory neuropathy, patients (APG-1387 45 mg): 1
- TRAEs (all Grades): Phlebitis, patients (APG-1387 45 mg): 0
- TRAEs (all Grades): Pneumonitis, patients (APG-1387 45 mg): 0
- TRAEs (all Grades): Pruritus, patients (APG-1387 45 mg): 0
- TRAEs (all Grades): Rash maculo-papular, patients (APG-1387 45 mg): 0
- TRAEs (all Grades): Tumor pain, patients (APG-1387 45 mg): 0
- # of pts discontinued treatment: Adverse Event (APG-1387 60 mg): 2
- # of pts discontinued treatment: Clinical progression (APG-1387 60 mg): 1
- # of pts discontinued treatment: Disease progression (APG-1387 60 mg): 1
- # of pts discontinued treatment: Lack of efficacy (APG-1387 60 mg): 0
- TRAEs (all Grades): Aspartate aminotransferase increased, patients (APG-1387 60 mg): 0
- TRAEs (all Grades): Bell's palsy, % of patients (APG-1387 60 mg): (20.0%)
- TRAEs (all Grades): Bell's palsy, patients (APG-1387 60 mg): 1
- TRAEs (all Grades): Blood bilirubin increased, % of patients (APG-1387 60 mg): (20.0%)
- TRAEs (all Grades): Blood bilirubin increased, patients (APG-1387 60 mg): 1
- TRAEs (all Grades): Decreased appetite, patients (APG-1387 60 mg): 0
- TRAEs (all Grades): Dehydration, patients (APG-1387 60 mg): 0
- TRAEs (all Grades): Diarrhoea, patients (APG-1387 60 mg): 0
- TRAEs (all Grades): Dyspepsia, patients (APG-1387 60 mg): 0
- TRAEs (all Grades): Eructation, patients (APG-1387 60 mg): 0
- TRAEs (all Grades): Fatigue, patients (APG-1387 60 mg): 0
- TRAEs (all Grades): Headache, % of patients (APG-1387 60 mg): (20.0%)
- TRAEs (all Grades): Headache, patients (APG-1387 60 mg): 1
- TRAEs (all Grades): Lipase increased, % of patients (APG-1387 60 mg): (20.0%)
- TRAEs (all Grades): Lipase increased, patients (APG-1387 60 mg): 1
- TRAEs (all Grades): Myalgia, patients (APG-1387 60 mg): 0
- TRAEs (all Grades): Nausea, patients (APG-1387 60 mg): 0
- TRAEs (all Grades): Peripheral sensory neuropathy, patients (APG-1387 60 mg): 0
- TRAEs (all Grades): Phlebitis, patients (APG-1387 60 mg): 0
- TRAEs (all Grades): Pneumonitis, % of patients (APG-1387 60 mg): (20.0%)
- TRAEs (all Grades): Pneumonitis, patients (APG-1387 60 mg): 1
- TRAEs (all Grades): Pruritus, % of patients (APG-1387 60 mg): (20.0%)
- TRAEs (all Grades): Pruritus, patients (APG-1387 60 mg): 1
- TRAEs (all Grades): Rash maculo-papular, % of patients (APG-1387 60 mg): (20.0%)
- TRAEs (all Grades): Rash maculo-papular, patients (APG-1387 60 mg): 1
- TRAEs (all Grades): Tumor pain, patients (APG-1387 60 mg): 0
- MTD of APG-1387 monotherapy (IV once weekly in a 21-day-cycle): 45 mg
- # of pts discontinued treatment: Adverse Event (Overall): 3
- # of pts discontinued treatment: Clinical progression (Overall): 2
- # of pts discontinued treatment: Disease progression (Overall): 14
- # of pts discontinued treatment: Lack of efficacy (Overall): 2
- TRAEs (all Grades): Aspartate aminotransferase increased, % of patients (Overall): (4.2%)
- TRAEs (all Grades): Aspartate aminotransferase increased, patients (Overall): 1
- TRAEs (all Grades): Bell's palsy, % of patients (Overall): (8.4%)
- TRAEs (all Grades): Bell's palsy, patients (Overall): 2
- TRAEs (all Grades): Blood bilirubin increased, % of patients (Overall): (4.2%)
- TRAEs (all Grades): Blood bilirubin increased, patients (Overall): 1
- TRAEs (all Grades): Decreased appetite, % of patients (Overall): (8.3%)
- TRAEs (all Grades): Decreased appetite, patients (Overall): 2
- TRAEs (all Grades): Dehydration, % of patients (Overall): (4.2%)
- TRAEs (all Grades): Dehydration, patients (Overall): 1
- TRAEs (all Grades): Diarrhoea, % of patients (Overall): (4.2%)
- TRAEs (all Grades): Diarrhoea, patients (Overall): 1
- TRAEs (all Grades): Dyspepsia, % of patients (Overall): (4.2%)
- TRAEs (all Grades): Dyspepsia, patients (Overall): 1
- TRAEs (all Grades): Eructation, patients (Overall): 0
- TRAEs (all Grades): Fatigue, % of patients (Overall): (12.5%)
- TRAEs (all Grades): Fatigue, patients (Overall): 3
- TRAEs (all Grades): Headache, % of patients (Overall): (8.3%)
- TRAEs (all Grades): Headache, patients (Overall): 2
- TRAEs (all Grades): Lipase increased, % of patients (Overall): (4.2%)
- TRAEs (all Grades): Lipase increased, patients (Overall): 1
- TRAEs (all Grades): Myalgia, % of patients (Overall): (4.2%)
- TRAEs (all Grades): Myalgia, patients (Overall): 1
- TRAEs (all Grades): Nausea, % of patients (Overall): (8.3%)
- TRAEs (all Grades): Nausea, patients (Overall): 2
- TRAEs (all Grades): Peripheral sensory neuropathy, % of patients (Overall): (4.2%)
- TRAEs (all Grades): Peripheral sensory neuropathy, patients (Overall): 1
- TRAEs (all Grades): Phlebitis, % of patients (Overall): (4.2%)
- TRAEs (all Grades): Phlebitis, patients (Overall): 1
- TRAEs (all Grades): Pneumonitis, % of patients (Overall): (4.2%)
- TRAEs (all Grades): Pneumonitis, patients (Overall): 1
- TRAEs (all Grades): Pruritus, % of patients (Overall): (8.3%)
- TRAEs (all Grades): Pruritus, patients (Overall): 2
- TRAEs (all Grades): Rash maculo-papular, % of patients (Overall): (8.3%)
- TRAEs (all Grades): Rash maculo-papular, patients (Overall): 2
- TRAEs (all Grades): Tumor pain, patients (Overall): 0
- Dose Limiting Toxicity (DLTs) observed (at 60 mg, lipase increase and facial nerve disorder): Two
- Most common treatment-related adverse events (TRAEs) (>10%) (patients): fatigue
- tolerability (patients, IV once weekly in a 21-day-cycle): well tolerated
